The results in this text go back to paper PMC11167047 (Cell Death Discovery, 2024).

Assay in all cases: kinome screen (33PanQinase)
Assay type in all cases: biochemical

Assay [1] has as its target T1, PAK3 (Homo sapiens, UniProt O75914).
T1 construct: purchased Reaction Biology Europe GmbH (formerly ProQinase)
As for the experimental part: (§1) The Kinome Screening was performed by Reaction Biology Europe GmbH (http://reactionbiology.com; Freiburg i. Br., Germany).

For assay [2], the target named is T2, VEGFR2 (Homo sapiens, UniProt P35968).
T2 construct: purchased Reaction Biology Europe GmbH (formerly ProQinase)
T2 sequence (P35968 20-1356): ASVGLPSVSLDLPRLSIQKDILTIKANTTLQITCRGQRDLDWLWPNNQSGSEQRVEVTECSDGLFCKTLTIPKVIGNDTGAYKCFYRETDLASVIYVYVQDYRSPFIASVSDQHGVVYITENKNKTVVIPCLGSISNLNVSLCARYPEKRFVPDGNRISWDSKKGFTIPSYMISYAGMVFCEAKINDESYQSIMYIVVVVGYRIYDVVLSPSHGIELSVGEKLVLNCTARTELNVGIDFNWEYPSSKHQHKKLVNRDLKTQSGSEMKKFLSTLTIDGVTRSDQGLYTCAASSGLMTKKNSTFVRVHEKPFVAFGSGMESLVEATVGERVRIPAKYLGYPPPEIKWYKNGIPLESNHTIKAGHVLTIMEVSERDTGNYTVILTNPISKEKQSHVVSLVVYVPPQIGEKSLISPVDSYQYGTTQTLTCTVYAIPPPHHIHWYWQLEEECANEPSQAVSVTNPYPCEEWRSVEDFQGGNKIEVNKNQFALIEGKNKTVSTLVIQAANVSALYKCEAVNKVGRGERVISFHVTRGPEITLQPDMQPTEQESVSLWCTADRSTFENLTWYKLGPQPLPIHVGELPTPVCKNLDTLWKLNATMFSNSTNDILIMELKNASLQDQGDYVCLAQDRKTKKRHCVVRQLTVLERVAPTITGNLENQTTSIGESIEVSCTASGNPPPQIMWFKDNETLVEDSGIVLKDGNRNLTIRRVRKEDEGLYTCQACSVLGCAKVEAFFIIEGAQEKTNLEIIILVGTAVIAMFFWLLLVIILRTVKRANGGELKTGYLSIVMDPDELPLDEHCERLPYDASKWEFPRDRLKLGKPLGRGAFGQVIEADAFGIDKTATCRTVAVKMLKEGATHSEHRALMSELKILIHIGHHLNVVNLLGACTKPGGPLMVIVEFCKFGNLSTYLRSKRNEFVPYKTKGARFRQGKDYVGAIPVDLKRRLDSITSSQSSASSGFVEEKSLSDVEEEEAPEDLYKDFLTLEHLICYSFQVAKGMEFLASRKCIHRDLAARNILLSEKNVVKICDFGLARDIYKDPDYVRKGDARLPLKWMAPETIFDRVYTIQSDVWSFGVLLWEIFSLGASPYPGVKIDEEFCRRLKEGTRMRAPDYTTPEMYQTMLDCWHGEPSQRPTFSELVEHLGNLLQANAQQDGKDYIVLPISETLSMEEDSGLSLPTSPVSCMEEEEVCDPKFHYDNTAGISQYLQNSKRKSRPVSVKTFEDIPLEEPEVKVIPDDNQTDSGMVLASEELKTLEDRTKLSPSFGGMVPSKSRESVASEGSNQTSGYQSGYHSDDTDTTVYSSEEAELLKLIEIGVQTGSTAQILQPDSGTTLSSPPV
As for the experimental part: as §1

For assay [3], the target named is T3, FGFR2 (Homo sapiens, UniProt P21802).
T3 construct: purchased Reaction Biology Europe GmbH (formerly ProQinase)
T3 sequence (P21802 22-821): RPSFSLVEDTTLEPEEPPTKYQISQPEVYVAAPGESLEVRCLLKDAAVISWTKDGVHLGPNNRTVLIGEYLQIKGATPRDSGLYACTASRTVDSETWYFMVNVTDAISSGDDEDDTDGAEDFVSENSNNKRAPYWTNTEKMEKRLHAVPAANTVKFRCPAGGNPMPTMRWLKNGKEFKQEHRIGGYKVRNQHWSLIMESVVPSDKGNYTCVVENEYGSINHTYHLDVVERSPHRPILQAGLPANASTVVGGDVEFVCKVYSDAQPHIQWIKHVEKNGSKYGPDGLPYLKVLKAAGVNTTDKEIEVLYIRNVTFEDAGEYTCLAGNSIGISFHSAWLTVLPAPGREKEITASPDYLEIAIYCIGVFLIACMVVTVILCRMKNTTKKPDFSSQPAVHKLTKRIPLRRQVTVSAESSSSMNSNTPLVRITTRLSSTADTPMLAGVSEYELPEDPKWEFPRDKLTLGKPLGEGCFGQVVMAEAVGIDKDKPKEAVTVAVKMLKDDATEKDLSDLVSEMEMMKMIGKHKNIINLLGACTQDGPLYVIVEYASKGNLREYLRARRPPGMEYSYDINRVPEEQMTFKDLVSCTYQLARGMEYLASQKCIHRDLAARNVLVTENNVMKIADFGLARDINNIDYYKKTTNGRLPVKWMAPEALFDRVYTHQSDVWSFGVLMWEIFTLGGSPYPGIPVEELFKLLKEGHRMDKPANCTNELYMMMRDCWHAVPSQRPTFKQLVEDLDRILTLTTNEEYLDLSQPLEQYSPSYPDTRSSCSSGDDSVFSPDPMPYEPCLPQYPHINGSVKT
As for the experimental part:
as §1

Assay [4] deals with T4, JAK3 (Homo sapiens, UniProt P52333).
T4 construct: purchased Reaction Biology Europe GmbH (formerly ProQinase)
T4 sequence (P52333 1-1124): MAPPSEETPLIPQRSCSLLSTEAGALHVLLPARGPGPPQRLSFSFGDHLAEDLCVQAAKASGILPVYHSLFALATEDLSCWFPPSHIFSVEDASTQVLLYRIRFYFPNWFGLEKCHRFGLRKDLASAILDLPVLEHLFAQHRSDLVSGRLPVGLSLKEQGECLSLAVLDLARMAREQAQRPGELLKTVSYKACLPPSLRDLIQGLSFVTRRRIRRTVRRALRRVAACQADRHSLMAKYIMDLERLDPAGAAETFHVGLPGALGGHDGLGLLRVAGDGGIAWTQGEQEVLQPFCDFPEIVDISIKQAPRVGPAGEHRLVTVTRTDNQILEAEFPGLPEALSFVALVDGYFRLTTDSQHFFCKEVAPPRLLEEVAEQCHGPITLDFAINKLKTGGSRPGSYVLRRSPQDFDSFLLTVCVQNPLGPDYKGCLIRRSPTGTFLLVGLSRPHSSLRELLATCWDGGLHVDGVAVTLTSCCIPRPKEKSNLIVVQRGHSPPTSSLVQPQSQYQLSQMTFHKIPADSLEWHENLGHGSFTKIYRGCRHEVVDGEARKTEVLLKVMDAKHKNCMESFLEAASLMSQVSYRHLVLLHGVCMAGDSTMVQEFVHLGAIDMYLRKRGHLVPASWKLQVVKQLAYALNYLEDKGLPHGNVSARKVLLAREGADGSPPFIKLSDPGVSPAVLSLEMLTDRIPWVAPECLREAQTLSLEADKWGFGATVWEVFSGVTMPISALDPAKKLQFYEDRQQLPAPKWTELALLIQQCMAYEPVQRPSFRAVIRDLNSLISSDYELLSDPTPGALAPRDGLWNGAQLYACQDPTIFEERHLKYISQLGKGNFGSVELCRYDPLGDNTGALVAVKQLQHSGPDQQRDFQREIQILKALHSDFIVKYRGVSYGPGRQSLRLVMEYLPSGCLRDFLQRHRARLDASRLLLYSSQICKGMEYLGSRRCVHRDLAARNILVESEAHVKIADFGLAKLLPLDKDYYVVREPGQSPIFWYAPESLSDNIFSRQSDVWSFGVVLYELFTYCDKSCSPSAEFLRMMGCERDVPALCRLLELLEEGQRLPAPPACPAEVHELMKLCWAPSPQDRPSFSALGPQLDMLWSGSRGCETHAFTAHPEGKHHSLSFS
As for the experimental part: as §1

The target in assay [5] is T5, MYLK (Homo sapiens, UniProt Q15746).
T5 construct: purchased Reaction Biology Europe GmbH (formerly ProQinase)
T5 sequence (Q15746 whole entry): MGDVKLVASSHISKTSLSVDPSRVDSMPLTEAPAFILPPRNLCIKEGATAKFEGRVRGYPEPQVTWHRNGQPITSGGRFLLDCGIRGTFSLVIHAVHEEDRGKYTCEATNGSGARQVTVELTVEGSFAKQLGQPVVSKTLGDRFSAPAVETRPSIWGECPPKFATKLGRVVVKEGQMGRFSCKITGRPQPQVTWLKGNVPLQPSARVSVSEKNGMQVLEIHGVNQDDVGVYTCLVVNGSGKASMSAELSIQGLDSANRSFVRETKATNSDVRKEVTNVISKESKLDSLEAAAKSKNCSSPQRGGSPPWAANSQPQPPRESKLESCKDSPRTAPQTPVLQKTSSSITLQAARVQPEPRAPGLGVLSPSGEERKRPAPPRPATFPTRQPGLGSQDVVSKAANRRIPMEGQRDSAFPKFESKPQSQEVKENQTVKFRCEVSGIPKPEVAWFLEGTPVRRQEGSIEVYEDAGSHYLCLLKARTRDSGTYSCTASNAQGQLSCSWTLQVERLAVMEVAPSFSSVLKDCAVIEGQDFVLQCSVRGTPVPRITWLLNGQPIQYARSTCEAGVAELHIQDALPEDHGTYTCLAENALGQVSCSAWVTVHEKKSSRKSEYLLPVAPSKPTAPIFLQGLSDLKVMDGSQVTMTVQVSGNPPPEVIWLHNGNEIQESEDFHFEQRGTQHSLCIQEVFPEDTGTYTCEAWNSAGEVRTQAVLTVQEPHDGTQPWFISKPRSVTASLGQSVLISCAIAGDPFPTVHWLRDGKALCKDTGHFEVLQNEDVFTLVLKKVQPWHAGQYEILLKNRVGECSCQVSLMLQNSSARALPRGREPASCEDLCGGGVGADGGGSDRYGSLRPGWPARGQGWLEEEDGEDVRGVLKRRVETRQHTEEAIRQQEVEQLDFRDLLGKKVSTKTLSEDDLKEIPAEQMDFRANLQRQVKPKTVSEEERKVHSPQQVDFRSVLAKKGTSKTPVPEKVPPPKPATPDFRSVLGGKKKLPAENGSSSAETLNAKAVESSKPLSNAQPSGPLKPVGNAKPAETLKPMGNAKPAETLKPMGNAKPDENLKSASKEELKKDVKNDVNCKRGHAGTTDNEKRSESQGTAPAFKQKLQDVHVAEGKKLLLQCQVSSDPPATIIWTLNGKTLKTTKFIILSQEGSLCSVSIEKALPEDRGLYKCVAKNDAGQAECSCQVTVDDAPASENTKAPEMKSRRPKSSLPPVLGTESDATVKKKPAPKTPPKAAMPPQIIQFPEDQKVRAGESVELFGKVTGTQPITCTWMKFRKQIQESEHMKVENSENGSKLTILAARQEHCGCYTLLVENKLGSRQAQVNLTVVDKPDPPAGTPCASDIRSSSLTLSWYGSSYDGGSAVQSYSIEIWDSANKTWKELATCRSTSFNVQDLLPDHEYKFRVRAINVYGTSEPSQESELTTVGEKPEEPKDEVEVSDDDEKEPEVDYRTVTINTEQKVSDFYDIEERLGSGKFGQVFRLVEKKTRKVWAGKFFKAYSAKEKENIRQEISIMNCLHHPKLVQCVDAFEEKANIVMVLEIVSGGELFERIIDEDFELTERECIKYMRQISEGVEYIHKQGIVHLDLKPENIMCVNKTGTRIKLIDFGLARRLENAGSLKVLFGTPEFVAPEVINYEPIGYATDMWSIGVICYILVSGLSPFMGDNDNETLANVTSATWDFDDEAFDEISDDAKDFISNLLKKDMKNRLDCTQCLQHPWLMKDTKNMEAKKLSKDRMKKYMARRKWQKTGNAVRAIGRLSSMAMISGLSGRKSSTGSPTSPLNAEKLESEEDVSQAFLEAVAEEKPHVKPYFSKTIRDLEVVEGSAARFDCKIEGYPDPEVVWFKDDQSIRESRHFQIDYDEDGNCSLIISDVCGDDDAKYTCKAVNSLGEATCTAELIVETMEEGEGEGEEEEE
Here is the method:
as §1

Assay [6] addresses T6, TYRO3 (Homo sapiens, UniProt Q06418).
T6 construct: purchased Reaction Biology Europe GmbH (formerly ProQinase)
T6 sequence (Q06418 41-890): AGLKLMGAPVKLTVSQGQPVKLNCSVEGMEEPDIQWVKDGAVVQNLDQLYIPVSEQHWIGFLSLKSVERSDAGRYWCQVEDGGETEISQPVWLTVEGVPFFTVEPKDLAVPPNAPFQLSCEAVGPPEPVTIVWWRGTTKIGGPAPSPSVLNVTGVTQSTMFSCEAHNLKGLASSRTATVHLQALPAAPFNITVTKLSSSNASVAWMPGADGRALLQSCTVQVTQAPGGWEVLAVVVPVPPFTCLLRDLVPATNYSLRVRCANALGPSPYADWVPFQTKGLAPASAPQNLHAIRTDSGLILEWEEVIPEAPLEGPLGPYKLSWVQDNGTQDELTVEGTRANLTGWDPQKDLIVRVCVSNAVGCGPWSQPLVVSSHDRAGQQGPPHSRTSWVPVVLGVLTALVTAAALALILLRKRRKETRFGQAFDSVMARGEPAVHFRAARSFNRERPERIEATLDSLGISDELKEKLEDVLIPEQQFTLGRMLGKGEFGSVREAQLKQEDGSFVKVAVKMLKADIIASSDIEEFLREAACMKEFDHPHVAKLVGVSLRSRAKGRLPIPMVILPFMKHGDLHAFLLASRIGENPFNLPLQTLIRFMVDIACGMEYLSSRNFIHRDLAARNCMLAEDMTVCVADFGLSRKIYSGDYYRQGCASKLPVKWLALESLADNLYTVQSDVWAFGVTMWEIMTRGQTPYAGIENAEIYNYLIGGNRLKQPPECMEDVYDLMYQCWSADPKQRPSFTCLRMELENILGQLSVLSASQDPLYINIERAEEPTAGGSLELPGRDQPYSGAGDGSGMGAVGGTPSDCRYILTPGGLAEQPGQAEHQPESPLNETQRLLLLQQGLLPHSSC
As for the experimental part:
as §1

T1 sequence (O75914 whole entry): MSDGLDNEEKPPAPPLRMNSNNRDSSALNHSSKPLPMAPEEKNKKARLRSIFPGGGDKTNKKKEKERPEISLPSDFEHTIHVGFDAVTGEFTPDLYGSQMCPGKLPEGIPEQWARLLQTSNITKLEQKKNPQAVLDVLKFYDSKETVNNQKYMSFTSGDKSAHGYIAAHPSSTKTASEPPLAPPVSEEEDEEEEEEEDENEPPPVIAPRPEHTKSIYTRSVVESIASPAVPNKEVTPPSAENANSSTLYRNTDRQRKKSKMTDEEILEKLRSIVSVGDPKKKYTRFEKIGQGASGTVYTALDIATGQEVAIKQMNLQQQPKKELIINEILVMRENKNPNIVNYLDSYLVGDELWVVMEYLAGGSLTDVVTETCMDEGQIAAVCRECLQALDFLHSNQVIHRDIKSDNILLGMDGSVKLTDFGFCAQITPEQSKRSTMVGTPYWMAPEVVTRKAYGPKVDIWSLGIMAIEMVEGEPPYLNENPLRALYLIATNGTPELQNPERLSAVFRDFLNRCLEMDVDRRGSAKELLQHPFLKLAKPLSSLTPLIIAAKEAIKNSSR

As to `COc1ccnc2[nH]cc(-c3cc(N)nc(N)c3)c12` [meriolin 16], the residual kinase activity is on record as 85 % of control in assay [1] (0.03 µM); 84 % of control in assay [1] (0.3 µM); 102 % of control in assay [2] (0.03 µM); 98 % of control in assay [2] (0.3 µM); 94 % of control in assay [3] (0.03 µM); 85 % of control in assay [3] (0.3 µM). Besides, the residual kinase activity in assay [4] (0.03 µM) was 58 % of control; in assay [4] (0.3 µM), 15 % of control; in assay [5] (0.03 µM), 103 % of control; in assay [5] (0.3 µM), 71 % of control; in assay [6] (0.03 µM), 104 % of control; in assay [6] (0.3 µM), 89 % of control.
For `c1ccc(CNc2cc(-c3c[nH]c4ncccc34)ccn2)cc1` [meriolin 36], the residual kinase activity in assay [1] (0.3 µM) is reported as 85 % of control; in assay [1] (3 µM), 40 % of control; in assay [2] (0.3 µM) it was 60 % of control; in assay [2] (3 µM), 19 % of control; in assay [3] (0.3 µM), 52 % of control; in assay [3] (3 µM), 9 % of control. The residual kinase activity in assay [4] (0.3 µM) was 5 % of control; in assay [4] (3 µM) it was -1 % of control; in assay [5] (0.3 µM) it was 62 % of control; in assay [5] (3 µM) it was 25 % of control; in assay [6] (0.3 µM), 94 % of control; in assay [6] (3 µM) it was 64 % of control.
